Counter-ions that a name gives are not always drawn.
Assays:
NCI-H1417 cells = assay: In vitro cell inhibition assay - H1417 cell proliferation (CellTiter-Glo); assay type: cell-based; conditions: Homo sapiens, NCI-H1417, H1417 small cell lung cancer cell proliferation
Protocol: 3. In Vitro Cell Inhibition Assay—H1417 Cell Proliferation
The inhibitory effect of the compounds on cell proliferation was assessed by detecting the number of viable cells using the CellTiter-Glo® reagent. […] The compounds were sequentially diluted in a 5-fold concentration gradient with DMSO to obtain 8 different concentrations o. These were diluted with BEGM (containing 10% FBS) cell culture medium to obtain the compound working solution (2×), which was added to the cell supernatant at 100 μL per well. The incubation continued for 7 days at 37° C., 5% CO2. The plate was then removed and equilibrated to room temperature (25° C.) along with the CellTiter-Glo® mixing reagent for 10-30 minutes. After centrifugation, 100 μL of the culture medium was carefully aspirated from each well, and 85 μL of CellTiter-Glo® reagent was added. The cells were thoroughly mixed with the CellTiter-Glo® mixing reagent using a microplate shaker for 2 min. and then incubated at room temperature for 10 min. The 96-well plate was subsequently placed on a multifunctional microplate reader to record the Luminescence values (RLU). • The inhibition rate was calculated using the following formula: […]
(§1) Note: ‘Negative’ refers to the group without inhibitors; ‘Blank’ refers to the group without cells.
(§2) The IC50 value was determined by fitting the inhibition rate by GraphPad Prism software.

LSD1 = LSD1 (Homo sapiens (Human), UniProt O60341); assay: In vitro enzyme inhibition assay - LSD1 (HTRF); assay type: biochemical
Protocol: 1. In Vitro Enzyme Inhibition Assay—LSD1
Initially, a master solution of 90 μM test compound (dissolved in DMSO) was prepared and sequentially diluted with DMSO in a 5-fold concentration gradient to yield a total of 9 concentrations of the compound working solution 1 (90×). Subsequently these 9 concentrations of working solution 1 were sequentially diluted by a 30-fold concentration gradient, i.e., 2 μL of working solution 1 was aspirated and added to 58 μL of Buffer, mixed on a vortex mixer with sufficient shaking to yield 9 concentrations of the screening test compound working solution 2 (3×). […] The mixture was incubated at room temperature for 15 minutes. […] Afterward, 2 μL of a termination solution (containing 5.4 mM 2-PCPA) was added to each well, mixed evenly, and incubated for another 15 minutes. Finally 4 μL of a pre-mixed antibody solution of Eu-anti H3K4 (PerkinElmer, TRF0404-D) and allophycocyanin (Prozyme, PJ27S) (1:1) was added to each well, mixed evenly, and incubated for 60 minutes. […] The inhibition rate was calculated through the following formula: […]
(§3) Note: ‘Negative’ refers to the group without the inhibitor; ‘Blank’ refers to the group without the enzyme.
(§4) The IC50 value was calculated by fitting the inhibition rate by GraphPad Prism software, employing log (inhibitor) vs. response-Variable Slope (four parameters) model.

pan-HDAC = assay: In vitro enzyme inhibition assay - HDAC (HDAC-Glo I/II), pan-HDAC; assay type: biochemical
Protocol: 2. In Vitro Enzyme Inhibition Assay—HDAC
The effect of the compound on the enzymatic activity of pan-HDAC and two isoforms (HDAC1 and HDAC8) was examined using the HDAC-Glo I/II Assay and Screening System assay to assess the level of inhibition of HDAC protease activity and selectivity in each isoform. The proteins and detection reagents were from the HDAC-Glo™ I/II Assay and Screening System (Promega). A 1 mM stock solution of the compound was prepared in DMSO and diluted in a 5-fold gradient to create a series of 8 concentrations, and a specific volume of the highest concentration was diluted 25 times with HDAC Buffer to obtain 4× working solution of the compound. […] The 384-well plate was then read on a multifunctional microplate reader, with the Luminescence channel selected to record Luminescence values (RLU). The inhibition rate was calculated using the following formula: […]
as §3, §4

NCI-H69 cells = assay: In vitro cell inhibition assay - NCI-H69 cell proliferation (CellTiter-Glo); assay type: cell-based; conditions: Homo sapiens, NCI-H69, H69 small cell lung cancer cell proliferation
Protocol: 4. In Vitro Cell Inhibition Assay—NCI-H69 Cell Proliferation
The inhibitory effect of the compounds on cell proliferation was assessed by detecting the number of viable cells using the CellTiter-Glo® reagent. NCI-H69 cells in the logarithmic growth phase were collected and inoculated into transparent bottom 96-well plates at a density 1×10^3 cells per well with 100 μL medium, and incubated at 37° C., 5% CO2 overnight. The compounds were sequentially diluted in a 5-fold concentration gradient with DMSO to obtain 8 different concentrations These were then diluted with RPMI-640 (containing 20% FBS) cell culture medium to obtain the compounds working solution (2×), which was added to the cell supernatant at 100 μL per well. The incubation continued for 7 days at 37° C., 5% CO2. The plate was then removed and equilibrated to room temperature (25° C.) along with the CellTiter-Glo® mixing reagent for 10-30 minutes. After centrifugation at 1200 rpm for 5 minutes, 120 μL of the culture medium was carefully aspirated from each well, and 60 μL of CellTiter-Glo® reagent was added. The cells were thoroughly mixed with the CellTiter-Glo® mixing reagent using a microplate shaker for 2 min. and then incubated at room temperature for 10 min. The 96-well plate was subsequently placed on a multifunctional microplate reader to record the Luminescence values (RLU).
The inhibition rate was calculated using the following formula: […]
as §1, §2

SMILES | IC50 (NCI-H1417 cells) [nM] | IC50 (LSD1) [nM] | IC50 (pan-HDAC) [nM] | IC50 (NCI-H69 cells) [nM]
Cc1nc(N2CCC(N)CC2)c(C#N)c(-c2ccc(C#N)c(F)c2)c1-c1ccc(OCCCCCCC(=O)NO)c(O)c1 [Example 26, 7-(4-(6-(4-Aminopiperidin-1-yl)-5-cyano-4-(4-cyano-3-fluorophenyl)-2-methylpyridin-3-yl)-2-hydroxyphenoxy)-N-hydroxyheptanamide hydrochloride] | 152 | 0.12 | 35 | –
CC1(NCc2ccc(/C=C/C(=O)NO)cc2)CCN(c2ncc(-c3ccc(OCC4(O)CC4)c(O)c3)c(-c3ccc(C#N)c(F)c3)c2C#N)CC1 [Example 229, (E)-3-(4-(1-(3-cyano-4-(4-cyano-3-fluorophenyl)-5-(3-hydroxy-4-((1-hydroxycyclopropyl)methoxy)phenyl)pyridin-2-yl)-4-methylpiperidin-4-yl)amino)methyl) phenyl)-N-hydroxyacrylamide formate] | 9.36 | 0.88 | 30.8 | 529
COc1ccc(-c2c(OCCCCCCC(=O)NO)cc(N3CCC(N)CC3)nc2-c2ccc(C#N)cc2)cc1O [Example 12, 7-((6-(4-Aminopiperidin-1-yl)-2-(4-cyanophenyl)-3-(3-hydroxy-4-methoxyphenyl)pyridin-4-yl)oxy)-N-hydroxyheptanamide] | – | 0.92 | 7.31 | –
COc1ccc(-c2c(-c3ccc(C#N)c(F)c3)nc(N3CCC(NCCCCCCC(=O)NO)CC3)n3ccnc23)cc1O [Example 35, 7-((1-(7-(4-Cyano-3-fluorophenyl)-8-(3-hydroxy-4-methoxy-phenyl)imidazo[1,2-c]pyrimidin-5-yl)piperidin-4-yl)amino)-N-hydroxy-heptanamide hydrochloride] | 188 | 4.63 | 266 | –
COc1ccc(-c2cnc(N3CCC(NCc4ccc(/C=C/CC(=O)NO)cc4)CC3)c(C#N)c2-c2ccc(C#N)c(F)c2)cc1O [Example 169, (E)-4-(4-(((1-(3-Cyano-4-(4-cyano-3-fluorophenyl)-5-(3-hydroxy-4-methoxyphenyl)pyridin-2-yl)piperidin-4-yl)amino)methyl)phenyl)-N-hydroxybut-3-enamide formate] | 2.33 | – | – | 310
N#Cc1ccc(-c2nc(N3CCC(N)CC3)cc(OCCCCCCC(=O)NO)c2-c2ccc(N)cc2)cc1F [Example 5, 7-(3-(4-Aminophenyl)-6-(4-aminopiperidin-1-yl)-2-(4-cyano-3-fluorophenyl)pyridin-4-yl)oxy)-N-hydroxyheptanamide hydrochloride] | 128 | – | 15 | –
O=C(/C=C/c1ccc(CNC(=O)c2cc(CN[C@@H]3C[C@H]3c3ccc(F)cc3)nc(-c3ccc(-n4cccn4)cc3)n2)cc1)NO [Example 232, 2-(4-(1H-pyrazol-1-yl)phenyl)-6-((((1R,2S)-2-(4-fluorophenyl)cyclopropyl)amino)methyl)-N-(4-((E)-3-(hydroxyamino)-3-oxoprop-1-en-1-yl)benzyl)pyrimidine-4-carboxamide formate] | 32.1 | – | – | 160
COc1ccc(-c2cnc(N3CCC(NCc4ccc(OCC(=O)NO)nc4)CC3)c(C#N)c2-c2ccc(C#N)c(F)c2)cc1O [Example 174, 2-((5-(((1-(3-Cyano-4-(4-cyano-3-fluorophenyl)-5-(3-hydroxy-4-methoxyphenyl)pyridin-2-yl)piperidin-4-yl)amino)methyl)pyridin-2-yl)oxy)-N-hydroxyacetamide formate] | 8.67 | – | – | 4170
COc1ccc(-c2cnc(N3CCC(NCc4ccc(C5CC5C(=O)NO)cc4)CC3)c(C#N)c2-c2ccc(C#N)c(F)c2)cc1O (centres unmarked) [Example 167, 2-(4-((1-(3-Cyano-4-(4-cyano-3-fluorophenyl)-5-(3-hydroxy-4-methoxyphenyl)pyridin-2-yl)piperidin-4-yl)amino)methyl) phenyl)-N-hydroxycyclopropane-1-carboxamide formate] | 0.39 | 0.37 | – | 381
Cc1cc(-c2c(OCCCCCCC(=O)NO)cc(N3CCC(N)CC3)nc2-c2ccc(C#N)c(F)c2)ccn1 [Example 10, 7-((6-(4-Aminopiperidin-1-yl)-2-(4-cyano-3-fluorophenyl)-2′-methyl-[3,4′-bipyridin]-4-yl)oxy)-N-hydroxyheptanamide hydrochloride] | – | 75.4 | 39 | –
N#Cc1ccc(-c2nc(N3CCC(N)CC3)cc(OCCCCCCC(=O)NO)c2-c2ccc(F)c(F)c2)cc1F [Example 6, 7-(6-(4-Aminopiperidin-1-yl)-2-(4-cyano-3-fluorophenyl)-3-(3,4-difluorophenyl)pyridin-4-yl)oxy)-N-hydroxyheptanamide hydrochloride] | – | 254 | 134 | –
N#Cc1ccc(-c2nc(N3CCC(N)CC3)n3ccnc3c2-c2ccc(NC(=O)CCCCCCC(=O)NO)c(O)c2)cc1F [Example 57, N^1-(4-(5-(4-aminopiperidin-1-yl)-7-(4-cyano-3-fluorophenyl)imidazo[1,2-c]pyrimidin-8-yl)-2-hydroxyphenyl)-N^8-hydroxyoctanediamine diformate] | 14.5 | 0.26 | 72 | –
CS(=O)(=O)c1ccc(-c2c(OCCCCCCC(=O)NO)cc(N3CCC(N)CC3)nc2-c2ccc(C#N)c(F)c2)cc1 [Example 4, 7-(6-(4-Aminopiperidin-1-yl)-2-(4-cyano-3-fluorophenyl)-3-(4-(methylsulfonyl)phenyl)pyridin-4-yl)oxy)-N-hydroxyheptanamide hydrochloride] | 209 | 11.9 | 12 | –
COc1ccc(-c2c(OCCCCCCC(=O)NO)cc(N3CCC(N)CC3)nc2-c2ccc(C#N)c(F)c2)cc1F [Example 3, 7-(6-(4-Aminopiperidin-1-yl)-2-(4-cyano-3-fluorophenyl)-3-(3-fluoro-4-methoxyphenyl)pyridin-4-yl)oxy-N-hydroxyheptanamide hydrochloride] | 226 | 13.7 | 29 | –
COc1ccc(-c2cnc(N3CCC(NCc4ccc(C5=C(C(=O)NO)CCC5)cc4)CC3)c(C#N)c2-c2ccc(C#N)c(F)c2)cc1O [Example 163, 2-(4-(((1-(3-Cyano-4-(4-cyano-3-fluorophenyl)-5-(3-hydroxy-4-methoxyphenyl)pyridin-2-yl)piperidin-4-yl)amino)methyl)phenyl)-N-hydroxycyclopent-1-ene-1-carboxamide formate] | 4.97 | – | – | 1400
COc1ccc(-c2cnc(N3CCC(NCc4ccc(/C=C(\C)C(=O)NO)cc4)CC3)c(C#N)c2-c2ccc(C#N)c(F)c2)cc1O [Example 172, (E)-3-(4-(((1-(3-Cyano-4-(4-cyano-3-fluorophenyl)-5-(3-hydroxy-4-methoxyphenyl)pyridin-2-yl)piperidin-4-yl)amino)methyl)phenyl)-N-hydroxy-2-methylacrylamide formate] | 1.71 | 0.74 | – | 1280

— patent US20250304549A1, “HYDROXYAMIDE DERIVATIVE AND USE THEREOF” (SICHUAN HUIYU PHARMACEUTICAL CO., LTD., priority 2022, published 2025)
